The text below walks through data of US7531577B2, “Arylsulfonamidyl tetralin derivatives and uses thereof” (Roche Palo Alto LLC, priority 2006, dated 2009).

By melting point is commonly meant the temperature, or range, at which the solid turns liquid.

Data set [1] has as its target T1, recombinant human 5-HT6 receptor (Homo sapiens, UniProt P50406).
T1 construct: expressed in transfected cells; membranes
As to the kind of experiment: Radioligand binding, [3H]LSD competition in membranes of HEK293 cells expressing 5-HT6. As to conditions: [3H]LSD displacement, pH 7.4, 37° C., read-out: pKi for 5-HT6 (converted). How it is done:
The binding activity of compounds of this invention in vitro was determined as follows. Duplicate determinations of 5-HT6 ligand affinity were made by competing for binding of [^3H]LSD in cell membranes derived from HEK293 cells stably expressing recombinant human 5-HT6 receptor. Duplicate determinations of 5-HT2A ligand affinity were made by competing for binding of [^3H]Ketanserin (3-(2-(4-(4-fluorobenzoyl)piperidinol)ethyl)-2,4(1H,3H)-quinazolinedione) in cell membranes derived from CHO-K1 cells stably expressing recombinant human 5-HT2A receptor. Membranes were prepared from HEK 293 cell lines by the method described by Monsma et al., Molecular Pharmacology, Vol. 43 pp. 320-327 (1993), and from CHO-K1 cell lines as described by Bonhaus et al., Br J Pharmacol. June; 115(4):622-8 (1995).
For estimation of affinity at the 5-HT6 receptor, all determinations were made in assay buffer containing 50 mM Tris-HCl, 10 mM MgSO4, 0.5 mM EDTA, 1 mM ascorbic acid, pH 7.4 at 37° C., in a 250 microliter reaction volume. […]
Assay tubes containing [^3H] […] LSD or [^3H]Ketanserin were determined as radioactive counts per minute using Packard TopCount.
Displacement of [^3H]LSD or [^3H]Ketanserin from the binding sites was quantified by fitting concentration-binding data to a 4-parameter logistic equation: […]

Counter-ions that a name gives are not always drawn.

T1 sequence (P50406 whole entry): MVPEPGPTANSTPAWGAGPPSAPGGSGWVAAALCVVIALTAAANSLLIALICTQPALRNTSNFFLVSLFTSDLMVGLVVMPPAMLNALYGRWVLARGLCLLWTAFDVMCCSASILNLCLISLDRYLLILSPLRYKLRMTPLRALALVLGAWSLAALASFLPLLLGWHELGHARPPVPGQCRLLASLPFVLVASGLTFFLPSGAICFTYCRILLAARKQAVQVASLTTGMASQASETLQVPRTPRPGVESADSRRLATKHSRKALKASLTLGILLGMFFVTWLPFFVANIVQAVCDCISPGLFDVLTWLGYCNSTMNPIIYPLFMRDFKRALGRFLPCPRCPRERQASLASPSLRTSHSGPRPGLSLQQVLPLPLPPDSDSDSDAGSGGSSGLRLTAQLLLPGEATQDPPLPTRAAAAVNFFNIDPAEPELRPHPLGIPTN

In the case of `CNCC1CCCc2cc(NS(=O)(=O)c3ccccc3)ccc21` (stereo not shown) [N-(5-Methylaminomethyl-5,6,7,8-tetrahydro-naphthalen-2-yl)-benzenesulfonamide], the Ki in data set [1] was roughly 0.138 nM.
In turn, `CN(c1ccc2c(c1)CCCC2CN)S(=O)(=O)c1cccc(F)c1` (stereo not shown) (as salt: oxalate) [Compound 9, N-(5-Aminomethyl-5,6,7,8-tetrahydro-naphthalen-2-yl)-3-fluoro-N-methyl-benzenesulfonamide] had a melting point of 176 to 177 °C.
Same read-out and setting: then `NC(=O)NCC1CCCc2cc(NS(=O)(=O)c3cccc(F)c3)ccc21` (stereo not shown) [Compound 6, 3-Fluoro-N-(5-ureidomethyl-5,6,7,8-tetrahydro-naphthalen-2-yl)-benzenesulfonamide], with 162 to 163 °C.
Still for that read-out and setting: the same measure for `NCC1CCCc2cc(NS(=O)(=O)c3ccccc3)ccc21` (stereo not shown) [Compound 2, N-(5-Aminomethyl-5,6,7,8-tetrahydro-naphthalen-2-yl)-benzenesulfonamide]: 164 to 165 °C; for `O=CNCC1CCCc2cc(NS(=O)(=O)c3cccc(F)c3)ccc21` (stereo not shown) [Compound 7, 3-Fluoro-N-(5-formylaminomethyl-5,6,7,8-tetrahydro-naphthalen-2-yl)-benzenesulfonamide]: 143 to 144 °C.
`CC(=O)NCC1CCCc2cc(NS(=O)(=O)c3cccc(F)c3)ccc21` (stereo not shown) [Compound 8, N-[6-(3-Fluoro-benzenesulfonylamino)-1,2,3,4-tetrahydro-naphthalen-1-ylmethyl]-acetamide] showed a melting point of 136 to 137 °C.
On the same count and under the same terms, the same measure for `CNCC1CCCc2cc(NS(=O)(=O)c3cccc(F)c3)ccc21` (stereo not shown) (as salt: oxalate) [Compound 5, 3-Fluoro-N-(5-methylaminomethyl-5,6,7,8-tetrahydro-naphthalen-2-yl)-benzenesulfonamide]: 135 to 136 °C.
